From patent publication US6916471B2, “Red blood cells loaded with S-nitrosothiol and uses therefor” (Duke University, priority 1995, dated 2005) come the findings set out here.

For assay [1], the system named is rabbit aortic ring. Put plainly: Rabbit aortic ring bioassay of CYSNO-treated blood with or without glutathione. Conditions: 100 μM. As to the method:
NO-loaded red blood cells were produced by incubating whole human blood in a solution comprising S-nitrosocysteine (CYSNO) at a molar ratio of 1:100 CYSNO:hemoglobin for 5 minutes at room temperature. The bioactivity of the treated blood was tested in a rabbit aortic ring bioassay, in the presence (+GSH) or absence (−GSH) of 100 μM glutathione.

For assay [2], the system named is Sprague-Dawley rat. As to the kind of experiment: Mean arterial pressure after femoral vein injection of loaded red blood cells. Type of assay: in vivo. Conditions: 50 mg/kg. From the text: Systemic administration of cell-free Hb results in hypertensive responses which have been attributed to NO scavenging by the heme (Vogel, W. M., et al., Am. J. Physiol. 251:H413-H420 (1986); Olsen, S. B., et al., Circulation 93:329-332 (1996)). To determine if SNO-Hb is free of this adverse affect, and to explore if in vitro mechanisms of NO release extend to the in vivo circumstance, we compared responses to Hb and SNO-Hb infused as a bolus into the femoral vein of anesthetized rats. […] Thus, the profiles of these compounds in vivo closely resemble those seen in vitro (FIG. 4A). […] These changes in mean blood pressure of ˜10% are on the order of those that differentiate normotension from hypertension in man, and in the therapeutic range of some antihypertensive regimens. […] The bioactivity of SNO-Hb in blood, where S—NO/heme stoichiometries approach 1:50,000, is a dramatic illustration of the resistence of this NO-related activity to Hb(Fe) inactivation. […]
Rats were anesthetized by intraperitoneal injection of pentobarbital and the femoral arteries and veins accessed by local cut down. The artery was then cannulated and the blood pressure monitored continuously using a Viggo Spectramed pressure transducer attached to a Gould recorder. […]

The nature of assay [3]: Endogenous SNO-Hb and Hb(FeII)NO in blood by photolysis-chemiluminescence. Type of assay: in vivo, rat. To be noted: 45 minutes after infusion, 50 mg/kg. From the text: To determine if SNO-Hb is naturally occuring in the blood, and if so, its relationship to the O2 transport capacity and nitrosylated-heme content of red cells, we developed an analytical approach to assay the S-nitrosothiol and nitrosyl-heme content of erythrocytes (Table 2). […] Hb was then purified from red cells and assayed for RSNO and (FeII)NO content. Arterial blood contained significant levels of SNO-Hb, whereas levels were virtually undetectable in venous blood (Table 2). […] The arterial-venous distribution seen for SNO-Hb was reversed in the case of Hb(FeII)NO, which was detected in higher concentrations in partially deoxygenated (venous) erythrocytes (Table 2). […] However, levels of Hb(FeII)NO in vivo are typically too low to be detected (by EPR) and SNO-Hb is EPR-silent (i.e. it is not paramagnetic). Thus, photolysis-chemiluminesence represents an important technological advance, as it is the first methodology capable of making quantitative and functional assessments of NO binding to Hb under normal physiological conditions.
Blood was obtained from the left ventricle (arterial) and jugular vein (venous) of anesthetized Sprague-Dawley rats. […] In 24 rats, Hb samples were divided in two aliquots which were then treated or not treated with 10-fold excess HgCl2 over protein concentration as measured by the method of Bradford. […]

Assay [4] concerns rabbit aortic ring. As to the kind of experiment: CysNOEE-treated human blood, rabbit aortic ring bioassay. To be noted: CysNOEE:heme 1:100 to 10:1; 21% and 1% oxygen. As for the experimental part:
S-nitrosocysteine ethyl ester (CysNOEE) was added to human whole blood to interact with the red blood cells. CysNOEE:Heme (see FIG. 22) is the molar ratio of CysNOEE to heme in hemoglobin contained in red blood cells, for CysNOEE incubated with blood for 5 minutes at room temperature. After these incubations at different CysNOEE:heme ratios (1:100, 1:10, 1:1 and 10:1; see FIG. 22), red blood cell membranes were isolated by lysis and centrifugation, and S-nitrosothiol (SNO) content of the isolated membranes was determined by photolysis chemiluminescence assay. The concentrations of SNO in the red blood cell membranes were plotted in FIG. 22 as membrane SNO. Bioactivity of red blood cells—from release of biologically active NO—was determined in a rabbit aortic ring bioassay under two different concentrations of oxygen, and the results are plotted in FIG. 22 as 21% oxygen, vasoactivity, and 1% oxygen, vasoactivity.

The subject of assay [5] is patient with primary pulmonary hypertension. Put plainly: Inhaled ethyl nitrite in patients with primary pulmonary hypertension, red blood cell NO. To be noted: PPH patients. Type of assay: in vivo, human. As to the method: A patient with primary pulmonary hypertension, with blood having starting values for SNO-hemoglobin, iron nitrosylhemoglobin and total NO/hemoglobin molar ratio as shown in the left bar of FIG. 15, was given an NO-donating drug by inhalation. Ethyl nitrite was diluted in ethanol. Oxygen carrier gas was passed though the ethyl nitrite solution and delivered to the patient at 10 liters/min. After 10 minutes, blood was withdrawn and analyzed by photolysis chemoluminescence. Results are shown in the right bar of FIG. 15, for the patient's blood after treatment. SNO-Hb and total Hb-bound NO levels were depressed in the patient relative to normal controls, but rose during inhalation of ethyl nitrite gas. The experiment was repeated for other patients (n=5).

The test system of assay [6] is rabbit aortic ring. Put plainly: Rabbit aortic ring perfused with blood of PPH patient after ethyl nitrite. To be noted: 1% oxygen. The source says:
The downward deflection on the plot indicates a dilation of the blood vessel, which for the “NO” blood, occurred for approximately 30 seconds.

`N[C@@H](CCC(=O)N[C@@H](CS)C(=O)NCC(=O)O)C(=O)O` [Glutathione, glutathione]: the “effect on red blood cell-mediated vasodilation” value in assay [1] was “potentiates the bioactivity of red blood cell-mediated vasodilation”.
Turning to `CNC(=N)NCCC[C@H](N)C(=O)O` [L-NMMA, N^G-monomethyl-L-arginine], the “increase in blood pressure” value in assay [2] was “about 20 mm Hg”. For the same compound, in assay [3], the “depletion of SNO-Hb” value is 82% and the “depletion of total Hb-NO” value was 50±18%.
For the compound `CCOC(=O)[C@@H](N)CSN=O` [S-nitrosocysteine ethyl ester], the “vasoactivity of treated red blood cells” value in assay [4] is reported as “relaxes blood vessels, most effectively under ischemic conditions”.
Consider `CCON=O` [ethyl nitrite], for which, in assay [5] (inhaled for 10 minutes, n=5), the “increase in SNO-Hb in blood” value was “statistically significant”; the “levels of iron nitrosylhemoglobin before and after treatment” value was “no statistical difference”. In addition, in assay [5] (inhaled), the “pulmonary vascular resistance and systemic oxygenation” value was “decreases in pulmonary vascular resistance and improved systemic oxygenation”. The “duration of dilation of aortic ring by blood of treated patient” value in assay [6] is reported as “approximately 30 seconds”.
